# In US9220771B2, “Peptide for use in the treatment of breast cancer and/or bone metastases” (MERCK PATENT GMBH, priority 2010, dated 2015):
# Experiments:
# [1] = test system: U251 human glioblastoma cells; experiment: Rat orthotopic glioblastoma model, radiotherapy and cilengitide scheduling, survival; format: in vivo, NIH rnu nude rats; conditions: t-4 and t-8 h groups, cilengitide 4 mg/kg + 25 Gy
# Protocol: NIH rnu nude rats are anaesthetized, restrained, and injected intracerebrally 1 mm retro orbitally, 3 mm to the right of the bregma and at a depth of 2.5 mm with 5×10E5 U251 human glioblastoma cells suspended in 10 ul of culture medium, using a #2701 Hamilton syringe fitted with a 26 gauge needle, essentially as previously described (Engebraaten et al., 1999). After 14 days, cilengitide (4 mg/kg) is given as an intraperitoneal bolus in PBS, at various time (8 h, 4 h, 2 h, 1 h) prior to a single treatment with single, collimated, dorsal-ventral beam of 6 MV x-rays, so that 95-100% of the central axis dose of 25 Gy hit the tumor volume (Kim et al., 1999). Each of the 7 subsequent days the animals also received an identical i.p. bolus of cilengitide. The animals are maintained under ad libitum food and drink until they become moribund, or are sampled for tissue analysis (in the t-4 and t-8 h groups, where the animals are healthy past 230 days post tumor injection). A Kaplan-Meier survival curve is calculated and plotted (FIG. 7) from the raw data (Table 2). All animals in the RT monotherapy group died by 120 d.
# [2] = test system: MDA-MB-231 breast cancer bone metastases; experiment: DCE-MRI of experimental breast cancer bone metastases (amplitude A, exchange rate constant kep); format: in vivo, nude rats (RNU strain); conditions: cilengitide 75 mg/kg
# Protocol: (§1) T2-weighted imaging is performed using a turbo spin echo sequence (orientation axial, TR 3240 ms, TE 81 ms, matrix 152×256, FOV 90×53.4 mm^2, slice thickness 1.5 mm, 3 averages, scan time 3 min 40 s). For dynamic contrast-enhanced MRI, a saturation recovery turbo flash sequence through the largest diameter of the tumor (orientation axial, TR 373 ms, TE 1.86 ms, matrix 192×144, FOV 130×97.5 mm, slice thickness 5 mm, measurements 512, averages 1, scan time 6 min 55 s) is used. After 20 s baseline, 0.1 mmol/kg Gd-DTPA (Magnevist; Bayer Schering Pharma, Berlin, Germany) is intravenously infused for a time period of 10 s.
# Unenhanced VCT images and MRI-acquired T2-weighted images are analyzed using the Medical Imaging Interaction Toolkit (MITK, Heidelberg, Germany) to determine volumes of osteolytic lesions and soft tissue components, respectively. DCE-MRI acquired data is analyzed using the Dynalab workstation (Mevis Research, Bremen, Germany) according to the two-compartment model of Brix to determine the parameters amplitude A and exchange rate constant kep, as described.^23, 30 Briefly, the injected contrast media is distributed in both compartments (intravascular space and extravascular, interstitial space). The accumulation of contrast agent in these compartments over time is characterized by the amplitude A (associated with blood volume), whereas the exchange of contrast agent between the intravascular space and the interstitial space is characterized by the exchange rate constant kep (associated with vessel permeability). For determination of the respective values of the amplitude A and kep of bone metastases in our study, a region of interest is placed around the soft tissue component on color maps for A and kep, respectively, using the Dynalab workstation (Mevis Research, Bremen, Germany).
# For each animal, volumes of the osteolysis and soft tissue component, amplitude A and exchange rate constant kep are plotted versus time after tumor cell inoculation (due to technical reasons one animal of the control group can not be evaluated for the amplitude A and kep). Normalization of the data to the corresponding initial value at day 30 for each animal is performed and changes are expressed in percent. For statistical comparisons of data from non-invasive imaging and histological analysis, the respective values are compared between the control and treatment groups using the two-sided Wilcoxon-Test; p-values <0.05 are considered significant.
# [3] = test system: MDA-MB-231 breast cancer bone metastases; experiment: Experimental breast cancer bone metastases in nude rats: volumes of osteolytic lesions and soft tissue components by VCT and MRI; format: in vivo, nude rats (RNU strain); conditions: for mean relative volume of soft tissue components (STC), increase compared to initial value at day 30 / mean relative volume of osteolytic lesions (OL), increase compared to initial value at day 30: cilengitide 75 mg/kg i.p. five times per week from day 30; for mean relative volume of soft tissue components (STC), increase compared to initial value at day 30: MRI
# Protocol: For this purpose, nude rats bearing established breast cancer bone metastases are treated with cilengitide, a small molecule inhibitor of αvβ3 and αvβ5 integrins (75 mg/kg, five days per week; n=12 rats) and compared to vehicle treated control rats (n=12). In a longitudinal study, conventional magnetic resonance imaging (MRI) and flat panel volumetric computed tomography (VCT) are used to assess the volume of the soft tissue tumor and osteolysis, respectively, and dynamic contrastenhanced (DCE-) MRI is performed to determine functional parameters of the tumor vasculature reflecting blood volume and blood vessel permeability.
# Nude rats (RNU strain) are obtained from Harlan-Winkelmann GmbH (Borchen, Germany) at the age of six weeks and housed in a specific pathogen-free environment in a mini barrier system of the central animal facility. Animals are kept under controlled conditions (21±2° C. room temperature, 60% humidity, 12 h light-dark rhythm) and offered autoclaved food and water ad libitum. Sub-confluent MDAMB- 231 cells are harvested using 0.05% Trypsin-EDTA (Gibco®; Invitrogen, Karlsruhe, Germany) counted on a Neubauer's chamber and resuspended in RPMI-1640 to a final concentration of 10^5 cells in 200 μl. Rats are anesthetized using a mixture of nitrous oxide (1 l/min), oxygen (0.5 l/min) and isoflurane (1.5 vol. %). Arterial branches of the right hind leg are dissected and 10^5 cells injected into the superficial epigastric artery as described previously.^28 Bone metastases established and are observed exclusively in the femur, tibia and fibula of the right hind leg. 30 days after cancer cell transplantation, rats (n=24) are randomly divided into two groups, one group receiving the cyclic RGD-peptide inhibitor of αvβ3/αvβ5 integrins (cilengitide, EMD 121974^14, 17, 29; Merck, Darmstadt, Germany) intraperitoneally five times per week in isotonic saline (75 mg/kg; n=12 rats) and the other, sham-treated group, serving as a control (n=12 rats). The observation period of all animals is 55 days and no rat in the study dies ahead of schedule.
# After the inoculation of cancer cells each rat is imaged at days 30, 35, 45 and 55 using (i) a flat-panel equipped volumetric computed tomograph (Volume CT, Siemens, Germany) and (ii) a 1.5T clinical magnetic resonance scanner (Symphony, Siemens, Erlangen, Germany) equipped with a home-built receive-transmit coil (cylindrical volume resonator with an inner diameter of 83 mm and a usable length of 120 mm). Prior to in vivo imaging with VCT and MRI, rats aree anesthetized with nitrous oxide, oxygen and isoflurane as described above.
# VCT imaging is obtained using the following parameters: tube voltage 80 kV, tube current 50 mA, scan time 51 s, rotation speed 10 s, frames per second 120, matrix 512×512, and slice thickness 0.2 mm. Image reconstructions are performed using a modified FDK (Feldkamp Davis Kress) cone beam reconstruction algorithm (kernel H80a; Afra, Erlangen, Germany).
# as §1
# Unenhanced VCT images and MRI-acquired T2-weighted images are analyzed using the Medical Imaging Interaction Toolkit (MITK, Heidelberg, Germany) to determine volumes of osteolytic lesions and soft tissue components, respectively. […]
# [4] = test system: MDA-MB468 human breast tumour cells; experiment: Study 007: MDA-MB-468 orthotopic primary tumor growth; format: in vivo, female BALB/c nu/nu mice; conditions: all three dosing groups (75, 150 or 300 mg/kg), daily s.c.; Vehicle Control higher than 350 mm^3
# Protocol: MDA-MB468 human breast tumour cells were orthotopically inoculated into the third mammary fat pad of female BALB/c nu/nu mice. The mice were randomised into groups when the tumors reached a size of approximately 40 mm^3.
# The mice in each group received treatment with either Vehicle Control (Placebo) or EMD 121974 (75, 150 or 300 mg/kg) by daily subcutaneous injection. Body weight and tumour volume measurements were made for all mice three times per week.
# [5] = test system: Patients With Newly Diagnosed Glioblastoma (GBM); experiment: Phase I/IIa trial of Cilengitide and temozolomide with concomitant radiotherapy; format: in vivo, human
# Protocol: Purpose: To evaluate safety, toxicity, and efficacy of the combination of the cyclic RGD pentapeptide Cilengitide (=cyclo-(Arg-Gly-Asp-DPhe-NMe-Val)), an inhibitor of integrins αvβ3 and αvβ5, in addition to standard temozolomide (TMZ) and radiotherapy (RT).
# Patients and methods: Fifty-two pts (PS 0-1: 92%, 2: 8%; median age 57 yrs) after biopsy (n=9/17%) or tumor resection (n=43/83%) were treated with standard TMZ/RT (Stupp et al. NEJM 2005). In addition Cilengitide (500 mg i.v., 2×/week) was started one week before TMZ/RT and given throughout for the duration of chemotherapy or until progression. Primary endpoint was progression free survival rate at 6 months (target: 65%). Patients were followed with MRI every 2 months. Histopathologic diagnosis and MRI imaging were independently reviewed, MGMT promotor methylation status was assessed in 45 (86.5%) pts.
# [6] = test system: MDA-MB-231 breast cancer bone metastases; experiment: Histology / immunofluorescence of experimental breast cancer bone metastases; format: in vivo, nude rats (RNU strain); conditions: after 4 weeks treatment with cilengitide; control rats 8.8 μm; p<0.01
# Protocol: At the end of the observation period lower limbs of each animal are amputated and muscular tissue removed. Bones with surrounding soft tissue tumors are stored in 70% ethanol and embedded in a methylmethacrylat-based compound (Technovit® 9100 NEU, Heraeus Kulzer, Hanau, Germany) according to the instructions of the manufacturer. 5 μm-thick sections are cut (Microm HM340e microtome; Thermo Scientific, Waltham, Mass.), mounted on SuperFrost Plus microscope slides and dried overnight at 60° C. Additional freshly removed soft tissue tumors are embedded in optimum cutting temperature compound (OCT, TissueTec, Sakura, Japan) and stored at −80° C. […] Mean positive area fractions of SMA and collagen IV (in percent) as well as mean vessel diameters (in μm) are determined from 4 representative animals of each group analyzing 10 fields of view chosen randomly from each rat using Analysis Software (cell^F; Olympus Soft Imaging Solutions, Münster, Germany). […]
# For light microscopical analysis, sections are stained with Mayer's hematoxylin (Carl Roth, Karlsruhe, Germany) and eosin (Merck, Darmstadt, Germany), mounted using Eukitt mounting medium (O. Kindler, Freiburg, Germany) and analyzed using a microscope (DM LB; Leica, Wetzlar, Germany) equipped with a digital camera (DFC 320; Leica, Wetzlar, Germany). […]
# [7] = test system: HER2-positive advanced BRCA; conditions: in combination with capecitabine, 2nd line; cited from earlier work
# [8] = Cilengitide 500 mg i.v. 2x/week with TMZ/RT, of 52 patients
smiles,measurement,setting,value
"CC(C)[C@H]1C(=O)N[C@@H](CCCN=C(N)N)C(=O)NCC(=O)N[C@@H](CC(=O)O)C(=O)N[C@H](Cc2ccccc2)C(=O)N1C [Cilengitide, cyclo-(Arg-Gly-Asp-DPhe-NMeVal)]",time animals are healthy post tumor injection,[1],> 230 days
same,"DCE-MRI amplitude A (associated with blood volume), mean relative value","[2]; day 35, p>0.05 vs control",97 % of initial value
same,"DCE-MRI exchange rate constant kep (associated with vessel permeability), mean relative value","[2]; day 35, p>0.05 vs control",69 % of initial value
same,"DCE-MRI amplitude A (associated with blood volume), mean relative value","[2]; day 45, p<0.05 vs control",102 % of initial value
same,"DCE-MRI exchange rate constant kep (associated with vessel permeability), mean relative value","[2]; day 45, p>0.05 vs control",88 % of initial value
same,"DCE-MRI amplitude A (associated with blood volume), mean relative value","[2]; day 55, p<0.05 vs control",93 % of initial value
same,"DCE-MRI exchange rate constant kep (associated with vessel permeability), mean relative value","[2]; day 55, p<0.05 vs control",72 % of initial value
same,"mean relative volume of soft tissue components (STC), increase compared to initial value at day 30",[3]; day 35,2.2 fold
same,"mean relative volume of osteolytic lesions (OL), increase compared to initial value at day 30","[3]; day 35, VCT",1.5 fold
same,"mean relative volume of soft tissue components (STC), increase compared to initial value at day 30","[3]; day 45, p<0.05 vs control",4.9 fold
same,"mean relative volume of osteolytic lesions (OL), increase compared to initial value at day 30","[3]; day 45, VCT, p<0.05 vs control",2.4 fold
same,"mean relative volume of soft tissue components (STC), increase compared to initial value at day 30","[3]; day 55, p<0.01 vs control",6.3 fold
same,"mean relative volume of osteolytic lesions (OL), increase compared to initial value at day 30","[3]; day 55, VCT, p<0.01 vs control",3.5 fold
same,rats showing new bone formation in the osteolytic lesion,"[3]; treatment group (three of 12 rats), cilengitide 75 mg/kg, VCT, not seen in controls",25%
same,tumour volume on day 60,[4],below 200 mm^3
same,treatment related non-hematologic grade 3 toxicities,"[5]; Cilengitide 500 mg i.v. 2x/week with TMZ/RT, 3/52 patients",5.7%
same,"grade 3 constitutional symptoms (asthenia, fatigue, anorexia)",[5]; [8],3 n
same,grade 3 deep venous thrombosis and pulmonary embolism,[5]; [8],1 n
same,grade 3 elevated liver function tests,[5]; [8],1 n
same,tolerability of the combination,[5]; Cilengitide and TMZ/RT,well tolerated
same,mean vessel diameter in bone metastases,[6],6.6 μm
CS(=O)(=O)CCNCc1ccc(-c2ccc3ncnc(Nc4ccc(OCc5cccc(F)c5)c(Cl)c4)c3c2)o1 [Lapatinib],improvement of median time to progression compared to capecitabine alone,[7],4 months
